Literature values as cited in patent US4834966A, “Pharmaceutical composition with analgesic activity” (priority 1986, dated 1989).

Assays:
[1] = background statement
[2] = system: gastrointestinal and oral mucosa; settings: background statement

Which results are given for `CC(C)Cc1ccc(C(C)C(=O)[O-])cc1.[Na+]` (centres unmarked) [Ibuprofen sodium salt]?
solubility in water [1]: good solubility in water; gastrointestinal effect of solution pH [2]: gives solutions having a pH which produces gastrointestinal damages
